In US8093383B2, “P70 S6 kinase inhibitors” (Eli Lilly and Company, priority 2007, dated 2012):
Where a name gives a salt, the structure may show the parent alone. Read-outs that look alike come from different tables or passages of the source. Marks after values point to notes of the source that are not given here. Values belong to the molecule of their own block, whether it stands above or below them.

Legend:
A549 = test: Cell assay (Alamar Blue, 72 hours) A549; assay type: cell-based; details: Homo sapiens
Method: (§1) Cells are maintained, then typsinized and suspended in Dulbecco's modified Eagle's medium (DMEM_containing 10% fetal bovine serum (FBS), 25 mM 4-(2-hydroxyethyl)-1-piperazineethanesulfonic acid (HEPES), 1.0 mM Sodium Pyruvate and 0.1 mM Non Essential Amino Acids (NEAA). 1×10^3 HCT116 and 2×10^3 Cells may be seeded in 50 μL in 96 well plates and incubated in 5% CO2 at 37° C. overnight. Compounds are prepared at desired starting concentrations and serial diluted in DMSO. 4 μL of diluted compounds are transferred in 1 mL 10% FBS DMEM to make up 2× concentrations as added 50 μL to the 50 μL in the presence of cells for dosing. The plates are incubated at 37° C. in 5% CO2 for 72 hours. At the end of incubation period, 10 μL Alamar Blue is added and after 2 hours reaction the measurement is determined in CytoFluor at 530 nm excitation, 580 nm emission and Gain 45. The following compounds were tested in the following cell lines essentially as described above.

[1] = tested on: HUVEC / neo NHDF co-culture cord formation; test: Angiogenesis Cord Formation Assay; assay type: cell-based; details: Homo sapiens, 288 h
Method: Human neonatal dermal fibroblast cells (neo NHDF) are seeded into Parkard 96 well plate on the first day, and incubated in the 37° C. and 5% CO2 incubator. Human umbilical vein endothelial cells (HUVEC) are then plated on the top of neo NHDF cells. Starting the third day, the co-culture is treated with eight-dose series of the test compound (starting with 20 μM, 1:3 serial dilution) in the presence of 20 ng/mL vascular endothelial growth factor (VEGF). The compound and VEGF are replenished every two to three days. The assay is conducted over a 12 day period. Cells are fixed by cold 70% ethanol for 30 minutes on the 12th day and processed for anti human CD31 immunofluorescence. Cultures are incubated with mouse anti human CD31 antibody and then stained by goat anti mouse alexa 488 secondary antibody. Cells are also stained by Hoechst to visualize the nucleus. After the staining, the cord formation is captured and quantified using Cellomics Arrayscan® VTI high content image analysis platform adopting the tube formation BioApplication. Two parameters, the cord area and angiogenesis index, are used to calculate the relative potency of the test compound in this angiogenesis assay. The compounds of Examples 5 and 10 were tested and analyzed essentially as described above.

p70 S6K = target: T1, p70 S6K (Homo sapiens, UniProt P23443); test: Determination of p70 S6K In Vivo Target Inhibition (HCT 116); design: species or system athymic nude mice; details: HCT 116 xenograft, PO; potency based on plasma exposure; phosphorylation of S6RP serine 240/244
T1 construct: endogenous in cells; host or cells: HCT 116 human colon carcinoma xenograft tumours in athymic nude mice
Method: HCT 116 human colon carcinoma cells* (5×10^6) are subcutaneously implanted into the flank of athymic nude mice in 0.2 mL of matrigel. Two weeks post-implantation, mice are dosed PO according to a time course, single dose/single time point, or dose response protocol for the determination of TMED50 (threshold minimum effective dose). Tumors are flash frozen at harvest and blood is collected for the determination of parent compound plasma exposure and the calculation of TMEC50 (threshold minimum effective concentration) in the case of dose response studies. Tumors or tissues are homogenized in XY Lysis buffer (10 μg/mL Leupeptin, 10 μg/mL Trypsin-Chymotrypsin Inhibitor, 10 μg/mL Tosyl phenylalanyl chloromethyl ketone (TPCK), 10 μg/mL Aprotinin, 60 mM Beta-Glycerol Phosphate, 1% Triton X100, 25 mM Tris pH 7.5, 2.5 mM Pyrophosphate, 150 mM NaCl, 2 mM p-tosyl-L-arginine methyl ester (TAME), 15 mM para-nitrophenyl phosphate (pNPP), 5 mM Benzamidine, 1 mM Na Vanadate, 10 mM NaF, 50 μg/mL phenylmethane sulofnyl fluoride (PMSF), 1 mM DTT, 15 mM EDTA pH 8.0, 5 mM EGTA pH 8.0, 1 μM Microcystin, 1 μM Okadaic Acid, and 1 Roche Complete protease inhibitor mini-tablet per 10 mL) using Lysing Matrix A tubes (MP Biomedicals, Solon, Ohio, cat# 6910-500) and a BIO101 Thermo Savant Fast Prep FP12. Lysates are aliquoted and either assayed immediately or stored at −80° C. for later testing. In Vivo Target Inhibition of p70 S6K is measured utilizing Meso Scale Discovery (Gaithersburg, Md.) ELISA technology to assess effects of the compound on phosphorylation of the serine 240/244 site of the downstream effector S6RP. Phosphorylation of p70 S6K(T389) and Akt(S473) is also assessed using this technology in a multiplex format. In summary, 20 μg of lysate is added to a carbon electrode 96-well plate pre-spotted with the appropriate capture antibodies. The protein of interest is probed using a ruthenium labeled detection antibody. Upon the passage of current over the electrode in the presence of read buffer containing the co-reactant TPA, electro-chemiluminescence results in the generation of light which is quantified and recorded using the MSD Sector 6000 instrument. For each study, percent inhibitions are calculated relative to the vehicle control group and ANOVA analysis is performed using the JMP software package for the determination of statistical significance. The following compounds were tested essentially as described above and have the following potencies based on plasma exposure.

[2] = tested on: HCT 116 human colon carcinoma cells; test: Determination of p70 S6K In Vivo Efficacy (HCT 116 xenograft tumor growth); design: species or system athymic nude mice
Method: HCT 116 human colon carcinoma cells (5×10^6) are subcutaneously implanted into the flank of athymic nude mice in 0.2 mL of matrigel. One week post-implantation, mice are dosed PO according to the pharmacokinetics and the pharmacodynamics of the molecule to maintain 30-50% or 60-90% pS6 Inhibition over a 24 hr period. Dosing is continued for at least 21 days. Tumor volumes are measured bi-weekly to evaluate drug related tumor growth reduction utilizing standard methods. At the end of the study, tumors are flash-frozen at harvest and blood is collected for the determination of parent compound plasma exposure. The compound of Example 5 was tested essentially as described above.

U87MG = test: Cell assay (Alamar Blue, 72 hours) U87MG; assay type: cell-based; details: Homo sapiens, U-87 MG
Method: as §1

P70 S6 kinase (T412E) = target: T2, P70 S6 kinase (T412E) (Homo sapiens, UniProt P23443, T412E); test: Inhibition of p70S6 Kinase; assay type: biochemical; details: 25 μM ATP, 5 nM enzyme, relative IC50
T2 construct: purchased Upstate USA, Inc. (Charlottesville, Va.)
Method: P70 S6 kinase (T412E) from Upstate USA, Inc. (Charlottesville, Va.) is preincubated with 10 concentrations of compound in a 15 μL volume for 30 min at room temperature in 96-well plates. PKA, PKC, MAPKAP-K1 Substrate from AnaSpec (San Jose, Calif.) and gamma ^33P-ATP from PerkinElmer (Waltham, Mass.) is added to initiate the reaction which is allowed to proceed for 60 minutes at room temperature in a final 25 μL volume under the following conditions: 10 mM HEPES pH 7.5, 10 mM MgCl2, 1.0 mM DTT, 0.082 mM EGTA, 0.005% TRITON X-100™, 25 μM, 25 μM ATP, 40 μCi/mL, 4 μM substrate, and 5 nM enzyme. Reactions are terminated with 75 μL 10% H3PO4 and 85 μL of quenched reaction mix is transferred to a phosphocellulose filter plate (Millipore #MAPHN0B50) and washed with 0.5% H3PO4 using a vacuum manifold. 100 μL of Microscint 20 (Packard #60113621) is added to each well and plates with liner are counted using a Wallac Beta Counter. Relative IC50 values are calculated by non-linear four parameter fitting.

A2780 = test: Cell assay (Alamar Blue, 72 hours) A2780; assay type: cell-based; details: Homo sapiens
Method: as §1

K562 = test: Cell assay (Alamar Blue, 72 hours) K562; assay type: cell-based; details: Homo sapiens
Method: as §1

Oral bioavailability = assay type: in vivo; details: rat, plasma; Sprague Dawley rats, 1 mg/kg (IV) or 10 mg/kg (oral gavage)
Method: The bioavailability of compounds of the present invention may be measured by methods known to the skilled artisan. For example a compound of Formula I is administered to Sprague Dawley rats at doses of 1 mg/kg (IV) or 10 mg/kg (oral gavage) in a conventional formulation. An oral formulation may include a suspension (0.25% PS80, 1% HEC, 0.05% Antifoam in water) using milled compound of Formula I. Plasma samples are obtained and concentrations of the compound of Formula I are measured. The compound of Example 57 was evaluated in a method substantially similar to that described above and found to have an oral bioavailability of >100%.

PANC-1 = test: Cell assay (Alamar Blue, 72 hours) PANC-1; assay type: cell-based; details: Homo sapiens
Method: as §1

PC3 = test: Cell assay (Alamar Blue, 72 hours) PC3; assay type: cell-based; details: Homo sapiens, PC-3
Method: as §1

NCI-H460 = test: Cell assay (Alamar Blue, 72 hours) NCI-H460; assay type: cell-based; details: Homo sapiens
Method: as §1

Rat 13762 = test: Cell assay (Alamar Blue, 72 hours) Rat 13762; assay type: cell-based
Method: as §1

T2 sequence (P23443 whole entry T412E): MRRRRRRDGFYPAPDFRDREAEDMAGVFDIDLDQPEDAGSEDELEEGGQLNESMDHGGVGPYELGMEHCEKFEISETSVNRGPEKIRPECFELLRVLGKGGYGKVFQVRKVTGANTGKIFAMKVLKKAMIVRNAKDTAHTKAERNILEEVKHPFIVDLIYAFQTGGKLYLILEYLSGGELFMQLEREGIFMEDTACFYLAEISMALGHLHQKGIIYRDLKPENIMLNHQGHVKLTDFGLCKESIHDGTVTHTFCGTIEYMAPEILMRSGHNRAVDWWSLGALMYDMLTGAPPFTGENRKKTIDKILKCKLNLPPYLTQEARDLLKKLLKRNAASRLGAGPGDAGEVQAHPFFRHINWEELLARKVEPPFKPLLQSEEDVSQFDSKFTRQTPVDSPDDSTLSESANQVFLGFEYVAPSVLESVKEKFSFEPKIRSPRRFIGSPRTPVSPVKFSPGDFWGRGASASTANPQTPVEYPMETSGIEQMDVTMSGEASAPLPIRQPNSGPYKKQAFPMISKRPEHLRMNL
T1 sequence (P23443 whole entry): as the sequence (P23443 whole entry T412E) above, with E412T counted along it

- IC50 (A549): 22 µM
- melting point: 306 °C
- IC50 (p70 S6K): 7.3 µM
- IC50 (U87MG): 14.6 µM
- IC50 (P70 S6 kinase (T412E)): 0.0294 µM
SMILES: Cl.FC(F)(F)c1cccc(-c2c[nH]c(C3CCN(c4ncnc5[nH]ncc45)CC3)n2)c1 [Example 5, 4-{4-[4-(3-(Trifluoromethyl)-phenyl)-1H-imidazol-2-yl]-piperidin-1-yl}-1H-pyrazolo[3,4-d]pyrimidine hydrochloride]
- IC50 ([1]; 20 ng/mL VEGF, 12 day, cord area and angiogenesis index, read-out: IC50): 2.92 µM
- Tumor Volume ([2]; 30 mg/kg PO (BID × 21), Day 8, mean of 10 animals): 36.5 mm^3
- Tumor Volume ([2]; 30 mg/kg PO (BID × 21), Day 13, mean of 10 animals): 58.7 mm^3
- Tumor Volume ([2]; 30 mg/kg PO (BID × 21), Day 16, mean of 10 animals): 90.9 mm^3
- Tumor Volume ([2]; 30 mg/kg PO (BID × 21), Day 20, mean of 10 animals): 134.6 mm^3
- Tumor Volume ([2]; 30 mg/kg PO (BID × 21), Day 23, mean of 10 animals): 192.7 mm^3
- Tumor Volume ([2]; 30 mg/kg PO (BID × 21), Day 27, mean of 10 animals): 296.3 mm^3
- Tumor Volume ([2]; 60 mg/kg PO (BID × 21), Day 8, mean of 10 animals ± standard deviation): 28.8 ± 2.6^b mm^3
- Tumor Volume ([2]; 60 mg/kg PO (BID × 21), Day 13, mean of 10 animals ± standard deviation): 42.1 ± 6.2*** mm^3
- Tumor Volume ([2]; 60 mg/kg PO (BID × 21), Day 16, mean of 10 animals ± standard deviation): 72.1 ± 11.8*** mm^3
- Tumor Volume ([2]; 60 mg/kg PO (BID × 21), Day 20, mean of 10 animals ± standard deviation): 139.0 ± 26.4*** mm^3
- Tumor Volume ([2]; 60 mg/kg PO (BID × 21), Day 23, mean of 10 animals ± standard deviation): 188.4 ± 25.9*** mm^3
- Tumor Volume ([2]; 60 mg/kg PO (BID × 21), Day 27, mean of 10 animals ± standard deviation): 280.0 ± 36.1*** mm^3
- Tumor Volume ([2]; 60 mg/kg PO (QD × 21), Day 8, mean of 10 animals ± standard deviation): 30.6 ± 3.4^b mm^3
- Tumor Volume ([2]; 60 mg/kg PO (QD × 21), Day 13, mean of 10 animals ± standard deviation): 57.8 ± 10.7** mm^3
- Tumor Volume ([2]; 60 mg/kg PO (QD × 21), Day 16, mean of 10 animals ± standard deviation): 85.0 ± 13.3*** mm^3
- Tumor Volume ([2]; 60 mg/kg PO (QD × 21), Day 20, mean of 10 animals ± standard deviation): 142.5 ± 18.4*** mm^3
- Tumor Volume ([2]; 60 mg/kg PO (QD × 21), Day 23, mean of 10 animals ± standard deviation): 194.5 ± 25.7*** mm^3
- Tumor Volume ([2]; 60 mg/kg PO (QD × 21), Day 27, mean of 10 animals ± standard deviation): 252.7 ± 34.4*** mm^3

- IC50 (p70 S6K): 1.92 µM
- IC50 (P70 S6 kinase (T412E)): 0.0103 µM
SMILES: Fc1ccc(-c2c[nH]c(C3CCN(c4ncnc5[nH]ccc45)CC3)n2)cc1C(F)(F)F [Example 7, 4-{4-[4-(4-Fluoro-3-trifluoromethyl-phenyl)-1H-imidazol-2-yl]-piperidin-1-yl}-7H-pyrrolo[2,3-d]pyrimidine hydrochloride]

- IC50 (p70 S6K): 47.7 µM
- IC50 (P70 S6 kinase (T412E)): 0.00758 µM
SMILES: Fc1ccc(-c2cnc(C3CCN(c4ncnc5[nH]cnc45)CC3)[nH]2)cc1C(F)(F)F [Example 8, 6-{4-[5-(4-Fluoro-3-trifluoromethyl-phenyl)-1H-imidazol-2-yl]-piperidin-1-yl}-9H-purine hydrochloride]

SMILES: Cn1cc(-c2ccc(F)c(C(F)(F)F)c2)nc1C1CCN(c2ncnc3[nH]ncc23)CC1 [Example 10, 4-{4-[4-(4-Fluoro-3-trifluoromethyl-phenyl)-1-methyl-1H-imidazol-2-yl]-piperidin-1-yl}-1H-pyrazolo[3,4-d]pyrimidine hydrochloride]
- IC50 [1]: 4.78 µM
- IC50 (p70 S6K): 1.97 µM
- IC50 (P70 S6 kinase (T412E)): 0.00379 µM

SMILES: Cc1ccc(S(=O)(=O)O)cc1.Cn1cc(-c2ccc(F)c(C(F)(F)F)c2)nc1C1CCN(c2ncnc3[nH]ncc23)CC1 [Example 57, 4-{4-[4-(4-Fluoro-3-trifluoromethyl-phenyl)-1-methyl-1H-imidazol-2-yl]-piperidin-1-yl}-1H-pyrazolo[3,4-d]pyrimidine p-toluenesulfonate]
- IC50 (A549): 10.3 µM
- IC50 (A2780): 25.1 µM
- IC50 (K562): 16.5 µM
- bioavailability (Oral bioavailability): > 100%
- IC50 (PANC-1): 30.2 µM
- IC50 (PC3): 31.9 µM
- IC50 (NCI-H460): 24 µM
- IC50 (Rat 13762): 51.6 µM
- IC50 (U87MG): 27.5 µM
- IC50 (P70 S6 kinase (T412E)): 0.0127 µM
